# Results taken from patent US7745446B2, “Pyrazolo[1,5-c]pyrimidines” (Bayer Schering Pharma Aktiengesellschaft, priority 2004, dated 2010).
# Key:
# [1] = molecular target: T1, GST-ΔPH-Akt1 (Homo sapiens, UniProt P31749); assay: Biochemical ΔPH Akt1 assay (flashplate, 33P incorporation into histone 2B); conditions: 100 nM ATP, histone 2B substrate; read-out: ΔPHAkt1 inhibition: IC50
# T1 construct: named GST-deltaPH-Akt1; 107-480aa; cloned in the pAcGl vector; GST (N); made in house; host or cells: SF9 insect cells (baculovirus vector pAcG1), co-expressed with PDK1
# T1 sequence (P31749 107-480, stated change not applied): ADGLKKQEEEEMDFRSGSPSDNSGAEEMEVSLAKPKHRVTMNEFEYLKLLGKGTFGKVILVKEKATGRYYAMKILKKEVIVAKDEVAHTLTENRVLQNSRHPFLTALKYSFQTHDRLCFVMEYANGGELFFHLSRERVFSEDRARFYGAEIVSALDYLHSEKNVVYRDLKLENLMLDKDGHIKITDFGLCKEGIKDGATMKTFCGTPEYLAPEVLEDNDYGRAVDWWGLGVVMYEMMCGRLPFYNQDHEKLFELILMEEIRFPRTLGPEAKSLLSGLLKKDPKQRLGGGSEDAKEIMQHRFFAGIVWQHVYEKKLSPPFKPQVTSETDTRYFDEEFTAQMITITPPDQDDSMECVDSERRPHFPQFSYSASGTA
# Source text: For the biochemical assay ΔPHAkt1 is used devoid of its PH domain as a GST fusion protein (named GST-deltaPH-Akt1; 107-480aa; cloned in the pAcGl vector (BD Biosciences Pharmingen)), co-expressed with PDK1 in SF9 insect cells. The protein is purified using glutathion-affinity chromatography by standard protocols.
# In order to study the inhibition of Akt according to the invention, a flashplate-based assay has been developed.
# The Akt1 assay is a biochemical assay using Akt1 devoid of its PH domain and co-expressed with PDK1 in insect cells. The GST-ΔPH-Akt1 assay is run in 96 well plates by incubating 100 ng/well GST-ΔPH-Akt1, 100 ng/well histone 2B (Roche, #223514) as substrate, 10 μl of compound of invention (test compounds were dissolved as 10 mM solutions in dimethylsulfoxide (DMSO) and subsequently diluted) and 100 nM ATP (including ^33P-ATP) in 100 μl of reaction buffer ([…], pH7,5; 3 mM MgCl2; 3 mM MnCl2; 3 μM Na-Orthovanadat; 1 mM DTT; 1 μg/ml PEG8000) for 80 minutes at 30° C. The reactions are terminated by adding 100 μl stopping buffer (2% H3PO4 for 5 minutes) and are washed 3 times by using washing buffer (0.9% NaCl). Relying on the incorporation of ^33P into the protein substrate histone 2B, the detection is based on the adhesion of the phosphorylated protein to the surface of scintillator-coated flash plates (NEN, USA; #SMP-200). This phosphorylation is measured by counting the plate for 60 sec. using a plate reader (Wallac Microbeta; Perkin Elmer, USA).
# [2] = molecular target: T2, PKA (Homo sapiens, UniProt P17612); assay: Biochemical PKA assay (flashplate); conditions: 100 nM ATP; read-out: PKA inhibition: −log IC50 (converted)
# T2 construct: His; purchased PanVera, USA #R3791; host or cells: E. coli
# Description: For the biochemical PKA assay the catalytic subunit of PKA is expressed in E. coli as a His-tagged human recombinant protein and purified accordingly (PanVera, USA; #R3791).
# In order to study the kinase inhibition activity of the compounds according to the invention, a flashplate-based assay has been developed for the serine/threonine kinase, PKA. The assay is run in 96 well plates by incubating 1 ng/well His-PKA (PanVera, USA; #R3791), 0.5 μM/well PKA peptide (#12-394; Upstate, USA) as substrate, 10 μl of compound of invention (test compounds were dissolved as 10 mM solutions in dimethylsulfoxide (DMSO) and subsequently diluted) and 100 nM ATP (including ^33P-ATP) in 100 μl of reaction buffer ([…], pH7,5; 3 mM MgCl2; 3 mM MnCl2; 3 μM Na-Orthovanadat; 1 mM DTT) for 80 minutes at 22° C. The reactions are stopped by adding 100 μl stopping buffer (2% H3PO4 for 5 minutes) and are washed 3 times by using washing buffer (200 μl 1×PBS). Relying on the incorporation of ^33P into the peptide substrate, the detection is based on the adhesion of the phosphorylated peptide to the surface of scintillator-coated Flash plates (Perkin Elmer, USA; #SMP-103). This phosphorylation is measured by counting the plate for 60 sec. using a plate reader (Wallac Microbeta; Perkin Elmer, USA). By using this method the IC50 of the PKA inhibition is determined.
# [3] = system: MCF7 cells; assay: Cellular proliferation/cytotoxicity assay (Alamar Blue), MCF7; conditions: Homo sapiens, MCF7, 48 h, read-out: Anti-proliferative/cytotoxic activity: IC50 MCF7
# [4] = system: MDA-MB-468 cells; assay: Cellular proliferation/cytotoxicity assay (Alamar Blue), MDA-MB-468; conditions: Homo sapiens, MDA-MB-468, 48 h, read-out: Anti-proliferative/cytotoxic activity: IC50 MDA468
# Description: The anti-proliferative activity of the compounds as described herein, is evaluated using MCF7 and MDA-MB-468 (ATCC HTB-22 and HTB-132) cell lines and the Alamar Blue (Resazurin) cell viability assay (O'Brien et al. Eur J Biochem 267, 5421-5426, 2000). Resazurin is reduced to the fluorescent resorufin by cellular dehydrogenase activity, correlating with viable, proliferating cells. Test compounds are dissolved as 10 mM solutions in DMSO and subsequently diluted. MCF7 or MDA-MB-434 cells were seeded into 96 well flat bottom plates at a density of 10000 cells/well (MCF7) or 5000 cells/well (MDA-MB-468) in a volume of 200 μl/well. 24 hours after seeding, 1 μl each of the compound dilutions are added into each well of the 96 well plates. Each compound dilution is tested as at least as duplicates. Wells containing untreated control cells were filled with 200 μl DMEM containing 0.5% v:v DMSO. The cells are then incubated with the substances for 48 hours at 37° C. in a humidified atmosphere containing 5% carbon dioxide. To determine cell viability, 20 μl of a Resazurin solution (Sigma; 90 mg/l) are added. After 4 hours incubation at 37° C. the fluorescence is measured at an extinction of 544 nm and an emission of 590 nm (Wallac Victor2; Perkin Elmer, USA). For the calculation of the cell viability the emission value from untreated cells is set as 100% viability and the emission rates of treated cells are set in relation to the values of untreated cells. Viabilities are expressed as % values. The corresponding IC50 values of the compounds for cytotoxic activity are determined from the concentration-effect curves by means of non-linear regression. The analysis of the data is performed using a biostatistical program (GraphPad Prism, USA).
IC50 [1] [µM],IC50 [2] [µM],Compound,IC50 [3] [µM],IC50 [4] [µM]
≤ 1.75,> 100,"NCc1cccc(C(=O)Nc2ccc(Nc3nc(-c4cccc5c4oc4ccccc45)cc4ccnn34)cc2)n1 [Example 51, 6-Aminomethyl-pyridine-2-carboxylic acid [4-(5-dibenzofuran-4-yl-pyrazolo[1,5-c]pyrimidin-7-ylamino)-phenyl]-amide]",,
≤ 1.75,6.31 to 100,"O=C(Nc1cccc(Nc2nc(-c3cccc4c3oc3ccccc34)cc3ccnn23)c1)c1ccc2c(c1)CNCC2 [Example 34, 1,2,3,4-Tetrahydro-isoquinoline-7-carboxylic acid [3-(5-dibenzofuran-4-yl-pyrazolo[1,5-c]pyrimidin-7-ylamino)-phenyl]-amide]",≤ 16.9,≤ 13.6
≤ 1.75,> 100,"O=C(Nc1ccc(Nc2nc(-c3cccc4c3oc3ccccc34)cc3ccnn23)cc1)c1ccc2c(c1)CCNC2 [Example 58, 1,2,3,4-Tetrahydro-isoquinoline-6-carboxylic acid [4-(5-dibenzofuran-4-yl-pyrazolo[1,5-c]pyrimidin-7-ylamino)-phenyl]-amide]",≤ 16.9,≤ 13.6
≤ 1.75,> 100,"NCc1ccc(C(=O)Nc2ccc(Nc3nc(-c4cccc5c4oc4ccccc45)cc4ccnn34)cc2)c(F)c1 [Example 28, 4-Aminomethyl-N-[4-(5-dibenzofuran-4-yl-pyrazolo[1,5-c]pyrimidin-7-ylamino)-phenyl]-2-fluoro-benzamide]",≤ 16.9,≤ 13.6
≤ 1.75,6.31 to 100,"NCc1ccc(C(=O)Nc2ccc(Nc3nc(-c4ccc(I)cc4)cc4ccnn34)cc2)cc1 [Example 68, 4-Aminomethyl-N-{4-[5-(4-iodo-phenyl)-pyrazolo[1,5-c]pyrimidin-7-ylamino]-phenyl}-benzamide]",≤ 16.9,≤ 13.6
≤ 1.75,,"NCc1cccc(C(=O)Nc2cccc(Nc3nc(-c4cccc5c4oc4ccccc45)cc4ccnn34)c2)c1 [Example 18, 3-Aminomethyl-N-[3-(5-dibenzofuran-4-yl-pyrazolo[1,5-c]pyrimidin-7-ylamino)-phenyl]-benzamide]",≤ 16.9,≤ 13.6
≤ 1.75,6.31 to 100,"NCc1ccc(C(=O)Nc2ccc(Nc3nc(-c4ccc(-c5ccc(F)cc5)cc4)cc4ccnn34)cc2)cc1 [Example 67, 4-Aminomethyl-N-{4-[5-(4′-fluoro-biphenyl-4-yl)-pyrazolo[1,5-c]pyrimidin-7-ylamino]-phenyl}-benzamide]",≤ 16.9,≤ 13.6
≤ 1.75,6.31 to 100,"CNCc1ccc(C(=O)Nc2cccc(Nc3nc(-c4cccc5c4oc4ccccc45)cc4ccnn34)c2)cc1 [Example 32, N-[3-(5-Dibenzofuran-4-yl-pyrazolo[1,5-c]pyrimidin-7-ylamino)-phenyl]-4-methylaminomethyl-benzamide]",≤ 16.9,≤ 13.6
≤ 1.75,6.31 to 100,"CC(=O)Nc1cccc(-c2ccc(-c3cc4ccnn4c(Nc4ccc(NC(=O)c5ccc(CN)cc5)cc4)n3)cc2)c1 [Example 60, N-{4-[5-(3′-Acetylamino-biphenyl-4-yl)-pyrazolo[1,5-c]pyrimidin-7-ylamino]-phenyl}-4-aminomethyl-benzamide]",,
≤ 1.75,,"O=C(Nc1ccc(Nc2nc(-c3ccc(Br)cc3)cc3ccnn23)cc1)c1ccc2c(c1)CCNC2 [Example 85, 1,2,3,4-Tetrahydro-isoquinoline-6-carboxylic acid {4-[5-(4-bromo-phenyl)-pyrazolo[1,5-c]pyrimidin-7-ylamino]-phenyl}-amide]",≤ 16.9,≤ 13.6
≤ 1.75,,"NCCc1ccc(C(=O)Nc2ccc(Nc3nc(-c4ccc(-c5cccc([N+](=O)[O-])c5)cc4)cc4ccnn34)cc2)cc1 [Example 81, 4-(2-Amino-ethyl)-N-{4-[5-(3′-nitro-biphenyl-4yl)-pyrazolo[1,5-c]pyrimidin-7-ylamino]-phenyl}-benzamide]",≤ 16.9,≤ 13.6
≤ 1.75,,"NCc1ccc(C(=O)Nc2ccc(Nc3nc(-c4cccc5c4oc4ccccc45)cc4ccnn34)cc2)cc1 [Example 19, 4-Aminomethyl-N-[4-(5-dibenzofuran-4-yl-pyrazolo[1,5-c]pyrimidin-7-ylamino)-phenyl]-benzamide]",≤ 16.9,≤ 13.6
≤ 1.75,,"O=C(Nc1ccc(Nc2nc(-c3ccc(-c4cccc([N+](=O)[O-])c4)cc3)cc3ccnn23)cc1)c1ccc2c(c1)CCNC2 [Example 80, 1,2,3,4-Tetrahydro-isoquinoline-6-carboxylic acid {4-[5-(3′-nitro-biphenyl-4-yl)-pyrazolo[1,5-c]pyrimidin-7-ylamino]-phenyl}-amide]",≤ 16.9,≤ 13.6
≤ 1.75,,"COc1cccc(-c2ccc(-c3cc4ccnn4c(Nc4ccc(NC(=O)c5ccc(CCN)cc5)cc4)n3)cc2)c1 [Example 78, 4-(2-Amino-ethyl)-N-{4-[5-(3′-methoxy-biphenyl-4-yl)-pyrazolo[1,5-c]pyrimidin-7-ylamino]-phenyl}-benzamide]",≤ 16.9,≤ 13.6
≤ 1.75,,"COc1ccc2cc(-c3cc4ccnn4c(Nc4ccc(NC(=O)c5ccc(CN)cc5)cc4)n3)ccc2c1 [Example 45, 4-Aminomethyl-N-{4-[5-(6-methoxy-naphthalen-2-yl)-pyrazolo[1,5-c]pyrimidin-7-ylamino]-phenyl}-benzamide]",≤ 16.9,≤ 13.6
≤ 1.75,> 100,"NCc1cc(C(=O)Nc2ccc(Nc3nc(-c4cccc5c4oc4ccccc45)cc4ccnn34)cc2)ccn1 [Example 30, 2-Aminomethyl-N-[4-(5-dibenzofuran-4-yl-pyrazolo[1,5-c]pyrimidin-7-ylamino)-phenyl]-isonicotinamide]",,
≤ 1.75,6.31 to 100,"CC(C)(N)c1ccc(C(=O)Nc2cccc(Nc3nc(-c4cccc5c4oc4ccccc45)cc4ccnn34)c2)cc1 [Example 40, 4-(1-Amino-1-methyl-ethyl)-N-[3-(5-dibenzofuran-4-yl-pyrazolo[1,5-c]pyrimidin-7-ylamino)-phenyl]-benzamide]",,
≤ 1.75,6.31 to 100,"NCc1ccc(C(=O)Nc2ccc(Nc3nc(-c4ccc(-c5ccccc5)nc4)cc4ccnn34)cc2)cc1 [Example 54, 4-Aminomethyl-N-{4-[5-(6-phenyl-pyridin-3-yl)-pyrazolo[1,5-c]pyrimidin-7-ylamino]-phenyl}-benzamide]",,
≤ 1.75,> 100,"N=C(N)Nc1ccc(C(=O)Nc2ccc(Nc3nc(-c4cccc5c4oc4ccccc45)cc4ccnn34)cc2)cc1 [Example 48, N-[4-(5-Dibenzofuran-4-yl-pyrazolo[1,5-c]pyrimidin-7-ylamino)-phenyl]-4-guanidino-benzamide]",,
≤ 1.75,,"NCc1ccc(C(=O)Nc2cccc(Nc3nc(-c4cccc5c4oc4ccccc45)cc4ccnn34)c2)cc1 [Example 17, 4-Aminomethyl-N-[3-(5-dibenzofuran-4-yl-pyrazolo[1,5-c]pyrimidin-7-ylamino)-phenyl]-benzamide]",≤ 16.9,≤ 13.6
